Experimental data from US11951204B2, “Cell-penetrating peptides and composition including the same” (S-SKIN. CO., LTD., priority 2022, dated 2024).
Where “and” joins values, the source holds several entries; their conditions need not be identical. Equal entries are not always repeated. Ends that are not written are not given here.

Key:
[1] = Cytotoxicity assay of difunctional peptide (WST-1, microscopy); assay type: cell-based, human; settings: human, HDF-N cells, HDF-N, read-out: cell proliferation rate / survival rate (WST-1); for viability at 24 h, 12.5 µM: 12.5 μM peptide; for viability at 24 h, 25 µM: 25 μM peptide; for viability at 24 h, 50 µM: 50 μM peptide; for viability at 24 h, 100 µM: 100 μM peptide
[2] = tested on: HDF-N; test: as above; assay type: cell-based, human; settings: for change in the appearance of the cells (microscope): 12.5 μM to 100 μM
[3] = Cytotoxicity assay (WST-1, microscopy) in HaCaT cells; assay type: cell-based, human; settings: human, HaCaT cells (keratinocytes); for viability at 24 h, 25 µM / viability at 24 h, 50 µM / viability at 24 h, 100 µM / viability at 24 h, 200 µM: HaCaT, read-out: survival rate (WST-1); for viability at 24 h, 25 µM: 25 μM peptide; for viability at 24 h, 50 µM: 50 μM peptide; for viability at 24 h, 100 µM: 100 μM peptide; for viability at 24 h, 200 µM: 200 μM peptide; for viability at 24 h: at all concentrations (25-200 μM), read-out: survival rates of the HaCaT cells
Protocol: (§1) Cytotoxicity of the cell-penetrating multifunctional peptide according to Example 1 was checked. Specifically, HaCaT cells (human keratinocytes) were inoculated at a concentration of 1.5×10^4 cells/well into a 96-well plate and incubated for 24 hours. Then, the medium was removed, followed by washing once with PBS, and replaced with a serum-free medium. The cells were treated with Spep001 (SEQ ID NO: 1), Spep002 (SEQ ID NO: 8) or Spep003 (SEQ ID NO: 9) at a concentration of 0 μM, 25 μM, 50 μM, 100 μM or 200 μM and then further incubated for 24 hours. Herein, culture conditions were maintained at 37° C. with 5% CO2.
(§2) At the time of completion of further incubation, the appearance of the cells were imaged by a microscope, and the result thereof is shown in FIG. 2A(i) to FIG. 2A(xx).
(§3) Also, at the time of completion of incubation, a WST-1 assay (Water Soluble Tetrazolium salt-1, EZ-assay kit, DoGenBio) was conducted. Specifically, 100 μL of a WST-1 solution was added to the well of cells after the completion of further incubation and then incubated for 3 hours. Thereafter, the absorbance at 450 nm was measured using a microplate spectrophotometer (Multiskan™ GO, thermo), and the result thereof is shown in FIG. 2B and Table 2 below.
(§4) Herein, all the result values are expressed in mean±standard deviation. The analysis result of each item was statistically analyzed by a 2-way analysis of variance (ANOVA) test. A Bonferroni post-test was conducted at a P value of *p<0.05 and **p<0.01 only when the significance was determined by ANOVA test. GraphPad prism 5.0.1 (GraphPad Software Inc., San Diego, CA, USA) was used as a statistical software program.

[4] = tested on: HaCaT cells (human keratinocytes); test: as above; assay type: cell-based; settings: for cytotoxicity: HaCaT cells; for change in the appearance of the cells (microscope): HaCaT, all concentrations
Protocol: as §1, §2, §3, §4

[5] = tested on: HDF-N (human dermal fibroblast-neonatal) cells; test: Cytotoxicity assay (WST-1, microscopy) in HDF-N cells; assay type: cell-based; settings: for cytotoxicity: HDF-N cells; for change in the appearance of the cells (microscope): HDF-N, all concentrations
Protocol: as §1, §3
(§5) The appearance of HDF-N (human dermal fibroblast-neonatal) cells were imaged by a microscope as in Example 3, and the result thereof is shown in FIG. 3A(i) to FIG. 3A(xx). However, the HDF-N cells were inoculated at a concentration of 1.0×10^4 cells/well into a 96-well plate.

[6] = as above; assay type: cell-based, human; settings: human, HDF-N cells (dermal fibroblasts, neonatal); for viability at 24 h, 25 µM / viability at 24 h, 50 µM / viability at 24 h, 100 µM / viability at 24 h, 200 µM: HDF-N, read-out: survival rate (WST-1); for viability at 24 h, 25 µM: 25 μM peptide; for viability at 24 h, 50 µM: 50 μM peptide; for viability at 24 h, 100 µM: 100 μM peptide; for viability at 24 h, 200 µM: 200 μM peptide; for viability at 24 h: at all concentrations (25-200 μM), read-out: survival rates of the HDF-N cells
Protocol: as §1, §3, §5

[7] = tested on: HDF-N cells; assay type: cell-based, human; settings: for Cell viability(%): human, 24 h, 12.5 μM
Protocol: as §1, §3
HDF-N cells were treated with 12.5 μM KTTKS (SEQ ID NO: 5), Spep001-KTTKS (SEQ ID NO: 6) and pal-KTTKS which are peptides fabricated in Example 9. The appearance and proliferation rate of the cells were measured as in Example 3, and the results thereof are shown in FIG. 9A(i) to FIG. 9A(iv), FIG. 9B and Table 7 below.

[8] = tested on: collagen synthesis in HDF-N cells; test: Synthesis of collagen, PIP (procollagen Type 1C-peptide) ELISA; assay type: cell-based, human; settings: 12.5 μM, 24 hours
Protocol: HDF-N cells were inoculated at a concentration of 1×10^4 cells/well into a 96-well plate and incubated for 24 hours. Then, the medium was removed, followed by washing twice with PBS, and replaced with a serum-free medium. Thereafter, 12.5 μM KTTKS (SEQ ID NO: 5), Spep001-KTTKS (SEQ ID NO: 6) and pal-KTTKS were added to each well and then incubated for 24 hours. Then, 10 μL of the cell culture fluid was obtained and centrifuged at 800 rpm for 5 minutes. Thereafter, the degree of synthesis of collagen was checked using a PIP (procollagen Type 1C-peptide) ELISA kit (MK101, Takara), and the result thereof is shown in FIG. 10 and Table 8 below.

[9] = tested on: HaCaT cells; test: Cell penetration rate by flow cytometry; assay type: cell-based, human; settings: 10 μM, 37° C., 1 hour
Protocol: HaCaT cells were inoculated at a concentration of 3×10^5 cells/well into a 6-well plate and incubated for 24 hours. Then, the cell culture medium was removed, followed by washing twice with HBSS, and replaced with an Opti-MEM medium. The cells were treated with 10 μM FITC-TAT, FITC-Spep001, FITC-Spep002 or FITC-Spep003 and incubated at 37° C. with 5% CO2 for 1 hour. […] Finally, the cells were treated with 1 mg/mL trypsin and thus separated into single cells, followed by centrifugation at 1,000 rpm for 5 minutes. The FITC fluorescence intensities of cell-penetrating peptides per living 10,000 cells were measured by performing flow cytometry (Navios Flow Cytometer by Beckman Coulter Life Sciences), and the result thereof is shown in FIG. 5A(i) to FIG. 5A(v) and FIG. 5B.

“KTTKSRLRLRQRRRR [KTTKS-Spep001, KTTKSRLRLRQRRRR]” gave a viability at 24 h, 12.5 µM [1] of 111 ± 8.6%, a viability at 24 h, 25 µM [1] of 120 ± 4.46% and a viability at 24 h, 50 µM [1] of 107 ± 7.61%. For the same molecule, the viability at 24 h, 100 µM [1] was 94.1 ± 3.2%, the “change in the appearance of the cells (microscope)” value (shortened to “change in the appearance”) [2] was “no change in the appearance” and the “cell proliferation (in words)” value ([2]; compared to control (0 μM)) was “maintained at a level similar to that of a control”.
With RKRWLRKPRP [Spep003, RKRWLRKPRP] the viability at 24 h, 25 µM [3] was 98.3 ± 4.45%, the viability at 24 h, 50 µM [3] was 98.6 ± 1.01% and the viability at 24 h, 100 µM [3] was 103 ± 0.6%. For the same molecule, the viability at 24 h, 200 µM [3] was 99.9 ± 1.79%, the viability at 24 h [3] was at least 90% and the cytotoxicity [4] was “do not express cytotoxicity”. For the same molecule, the “change in the appearance” value [4] was “no change in the appearance”, the cytotoxicity [5] was “do not express cytotoxicity” and the “change in the appearance” value [5] was “no change in the appearance”. For the same molecule, the viability at 24 h, 25 µM [6] was 118 ± 5.3%, the viability at 24 h, 50 µM [6] was 104 ± 1.71% and the viability at 24 h, 100 µM [6] was 108 ± 3.07%. For the same molecule, the viability at 24 h, 200 µM [6] was 113.5 ± 0.59% and the viability at 24 h [6] was at least 90%.
For H-KTTKS-OH [KTTKS, reference compound], the “change in the appearance” value [7] was “no change in the appearance”, the “Cell viability(%)” value [7] was 110.58% and the “PIP (collagen in cell culture fluid)” value [8] was 203.24 ng/mL and 203.24 ± 10.74 ng/mL. The “amount of collagen synthesized based on the control” value [8] was 159.99%, the viability at 24 h, 12.5 µM [1] was 104 ± 13% and the viability at 24 h, 25 µM [1] was 107 ± 20.1%. The viability at 24 h, 50 µM [1] was 105 ± 4.28%, the viability at 24 h, 100 µM [1] was 119 ± 11.6% and the “change in the appearance” value [2] was “no change in the appearance”.
With `O=C1OC2(c3ccc(O)cc3Oc3cc(O)ccc32)c2ccc(N=C=S)cc21` [FITC, Fluorescein-5-Isothiocyanate, reference compound] the “cell penetration rate (FITC-positive cell count)” value [9] was 0.4%.
For KRRWRKIPKR [Spep002, KRRWRKIPKR], the viability at 24 h, 25 µM [3] was 104.7 ± 0.17%, the viability at 24 h, 50 µM [3] was 103 ± 1.97% and the viability at 24 h, 100 µM [3] was 101 ± 1.97%. The viability at 24 h, 200 µM [3] was 99.01 ± 0.62%, the viability at 24 h [3] was at least 90% and the cytotoxicity [4] was “do not express cytotoxicity”. The “change in the appearance” value [4] was “no change in the appearance”, the cytotoxicity [5] was “do not express cytotoxicity” and the “change in the appearance” value [5] was “no change in the appearance”. The viability at 24 h, 25 µM [6] was 102 ± 4.11%, the viability at 24 h, 50 µM [6] was 104.6 ± 0.75% and the viability at 24 h, 100 µM [6] was 108 ± 1.66%. The viability at 24 h, 200 µM [6] was 101 ± 2.44% and the viability at 24 h [6] was at least 90%.
With “RLRLRQRRRRKTTKS [Spep001-KTTKS, RLRLRQRRRRKTTKS]” the “change in the appearance” value [7] was “no change in the appearance”, the “Cell viability(%)” value [7] was 215.58% and the viability at 24 h, 12.5 µM [1] was 167 ± 13.4%. It also gave a viability at 24 h, 25 µM [1] of 148 ± 8.42%, a viability at 24 h, 50 µM [1] of 104 ± 3.16% and a viability at 24 h, 100 µM [1] of 106 ± 11.4%. The “change in the appearance” value [2] was “no change in the appearance” and the “cell proliferation rate / survival rate (WST-1)” value ([2]; HDF-N, 12.5 μM peptide) was 167.45±13.38%.
